Results published in patent US4272437A, “Antibacterial agents, and 4-thio azetidinone intermediates” (priority 1979, dated 1981).
Converted amounts (≈) assume the structure as drawn. “And” between values parts separate entries of the source, which are not always exact repeats. Equal entries are not always repeated. Where two headings read alike, the source gives them in different places.

Columns and labels:
[1] = test system: Str. faecalis A-20688; test: MIC, tube dilution, Streptococcus faecalis A20688; format: cell-based; conditions: overnight 37° C.; for MIC: Enterococcus faecalis, A20688, Str. faecalis A20688, read-out: Minimum Inhibitory Concentration (M.I.C.)
Source text: (§1) Representative compounds of the present invention were subjected to in vitro antibiotic screening against a variety of microorganisms.

[2] = test system: Pr. vulgaris A-9716; test: MIC, tube dilution, Proteus vulgaris / Proteus mirabilis A9716; format: cell-based, Proteus vulgaris (name changed to Proteus mirabilis); conditions: overnight 37° C.; for MIC: Proteus vulgaris, A9716, Proteus vulgaris / Proteus mirabilis A9716, read-out: Minimum Inhibitory Concentration (M.I.C.)
Source text: as §1

[3] = test system: Pr. mirabilis A-9900; test: MIC, tube dilution, Proteus mirabilis A9900; format: cell-based; conditions: overnight 37° C.; for MIC: Proteus mirabilis, A9900, Proteus mirabilis A9900, read-out: Minimum Inhibitory Concentration (M.I.C.)
Source text: as §1

[4] = test system: Str. pneumoniae A-9585; test: MIC, tube dilution, Streptococcus pneumoniae A9585; format: cell-based; conditions: Streptococcus pneumoniae, A9585, Str. pneumoniae A9585; overnight 37° C., Nutrient Broth; read-out: Minimum Inhibitory Concentration (M.I.C.)
Source text: as §1

[5] = test system: Ps. aeruginosa A-9843A; test: MIC, tube dilution, Pseudomonas aeruginosa A9843A; format: cell-based; conditions: Pseudomonas aeruginosa, A9843A, read-out: Minimum Inhibitory Concentration (M.I.C.), Pseudomonas aeruginosa A9843A; overnight 37° C.
Source text: as §1

[6] = test system: Staph. aureus A-9537; test: MIC, tube dilution, Staphylococcus aureus A9537; format: cell-based; conditions: overnight 37° C., Nutrient Broth; for MIC: Staphylococcus aureus, A9537, Staph. aureus A9537, read-out: Minimum Inhibitory Concentration (M.I.C.)
Source text: as §1

[7] = test system: E. coli A-20341-1; test: MIC, tube dilution, Escherichia coli A20341-1; format: cell-based; conditions: E. coli A20341-1, overnight 37° C.; for MIC: Escherichia coli, A203411, read-out: Minimum Inhibitory Concentration (M.I.C.)
Source text: as §1

[8] = test system: Ent. cloacae A-9659; test: MIC, tube dilution, Enterobacter cloacae A9659; format: cell-based; conditions: overnight 37° C.; for MIC: Enterobacter cloacae, A9659, Enterobacter cloacae A9659, read-out: Minimum Inhibitory Concentration (M.I.C.); for Minimum Inhibitory Concentration (M.I.C.): Enterobacter cloacae A9659
Source text: as §1

[9] = test system: Ser. marcescens A-20019; test: MIC, tube dilution, Serratia marcescens A20019; format: cell-based; conditions: overnight 37° C.; for MIC: Serratia marcescens, A20019, Serratia marcescens A20019, read-out: Minimum Inhibitory Concentration (M.I.C.); for Minimum Inhibitory Concentration (M.I.C.): Serratia marcescens A20019
Source text: as §1

[10] = test system: Klebsiella species A20468; test: MIC, tube dilution, Klebsiella species A20468; format: cell-based; conditions: Klebsiella species (K. pneumoniae) A20468, overnight 37° C.; for MIC: read-out: Minimum Inhibitory Concentration (M.I.C.)
Source text: as §1

[11] = test system: Staph. aureus A-9537 and 50% serum; test: MIC, tube dilution, Staph. aureus A9537 + 50% serum; format: cell-based, Staphylococcus aureus; conditions: overnight 37° C.; for MIC: Staphylococcus aureus, read-out: Minimum Inhibitory Concentration (M.I.C.)
Source text: as §1

[12] = test system: Ps. aeruginosa A-21213; test: MIC, tube dilution, Pseudomonas aeruginosa A21213; format: cell-based; conditions: Pseudomonas aeruginosa A21213; overnight 37° C.; read-out: Minimum Inhibitory Concentration (M.I.C.)
Source text: as §1

[13] = test system: Str. pyogenes A-9604; test: MIC, tube dilution, Streptococcus pyogenes A9604; format: cell-based; conditions: Streptococcus pyogenes, A9604, Str. pyogenes A9604; overnight 37° C., Nutrient Broth; read-out: Minimum Inhibitory Concentration (M.I.C.)
Source text: as §1

[14] = test system: Ent. cloacae A-9656; test: MIC, tube dilution, Enterobacter cloacae A9656; format: cell-based; conditions: overnight 37° C., read-out: Minimum Inhibitory Concentration (M.I.C.)
Source text: as §1

[15] = test system: Pr. morganii A-15153; test: MIC, tube dilution, Proteus morganii A15153; format: cell-based; conditions: overnight 37° C.; for MIC: Morganella morganii, A15153, Proteus morganii A15153, read-out: Minimum Inhibitory Concentration (M.I.C.)
Source text: as §1

[16] = test system: Providencia stuartii A21205; test: MIC, tube dilution, Providencia stuartii (Pr. rettgeri) A21205; format: cell-based; conditions: for MIC: Providencia stuartii
Source text: as §1

[17] = test system: K. pneumoniae A-15130; test: MIC, tube dilution, Klebsiella pneumoniae A15130; format: cell-based; conditions: overnight 37° C.; for MIC: Klebsiella pneumoniae, A15130, K. pneumoniae A15130, read-out: Minimum Inhibitory Concentration (M.I.C.)
Source text: as §1

[18] = test system: Staph. aureus (Meth-Res) A-15097; test: MIC, tube dilution, Staphylococcus aureus A15097 (Meth-Res); format: cell-based; conditions: overnight 37° C.; for MIC: Staphylococcus aureus
Source text: as §1

[19] = test system: E. coli A-15119; test: MIC, tube dilution, Escherichia coli A15119; format: cell-based; conditions: overnight 37° C.; for MIC: Escherichia coli, A15119, E. coli A15119, read-out: Minimum Inhibitory Concentration (M.I.C.)
Source text: as §1

[20] = test system: Staph. aureus (Pen-Res) A-9606; test: MIC, tube dilution, Staphylococcus aureus A9606 (Pen-Res); format: cell-based; conditions: Staph. aureus A9606 (Pen-Res), overnight 37° C.; for MIC: Staphylococcus aureus, read-out: Minimum Inhibitory Concentration (M.I.C.)
Source text: as §1

[21] = test system: S. aureus A9537; test: In vivo protection of mice, lethal infection with S. aureus A9537; conditions: Staphylococcus aureus, A9537, im, read-out: PD50
Protocol: Representative compounds of the present invention were also tested in vivo in mice and their PD50 (dose of compound in mg/kg required to protect 50% of the treated mice against an otherwise lethal infection of a micro-organism) values determined with respect to the test organisms shown below.

[22] = A21205, Providencia stuartii (Pr. rettgeri) A21205, overnight 37° C., read-out: Minimum Inhibitory Concentration (M.I.C.)

SMILES: CSC1C(=O)N2C(C(=O)O)=C(C)SC12 (stereo not drawn) [Example 5, Potassium 6-Thiomethyl-2-methylpenem-3-carboxylate]
- MIC [1]: 125 µg/mL
- MIC [2]: 32 µg/mL
- MIC [3]: 63 µg/mL
- MIC [4]: 0.5 µg/mL
- MIC [5]: > 125 µg/mL
- MIC [6]: 4 µg/mL
- MIC [7]: 125 µg/mL
- MIC [8]: 125 µg/mL
- MIC [9]: 63 µg/mL
- MIC [10]: > 125 µg/mL
- MIC [11]: > 63 µg/mL
- MIC [12]: > 125 µg/mL
- MIC [13]: 4 µg/mL
- MIC ([14]; Enterobacter cloacae A9656): 125 µg/mL
- MIC [15]: 125 µg/mL
- MIC [16, 22]: 32 µg/mL
- MIC [17]: 63 µg/mL
- MIC ([18]; Staph. aureus A15097 (Meth-Res), read-out: Minimum Inhibitory Concentration (M.I.C.)): 63 µg/mL
- MIC [19]: 63 µg/mL
- MIC [20]: 9 µg/mL

SMILES: O=C([O-])C1=C(Cc2ccccc2)S[C@@H]2CC(=O)N12.[Na+] [Example 13, Sodium 2-Benzylpenem-3-carboxylate]
- Minimum Inhibitory Concentration (M.I.C.) ([1]; Str. faecalis A20688): 32 µg/mL
- Minimum Inhibitory Concentration (M.I.C.) ([2]; Proteus vulgaris / Proteus mirabilis A9716): 2 µg/mL
- ED50 [21]: 12.5 mg/kg
- Minimum Inhibitory Concentration (M.I.C.) ([3]; Proteus mirabilis A9900): 2 µg/mL
- Minimum Inhibitory Concentration (M.I.C.) ([6]; Staph. aureus A9537): .13 µg/mL
- Minimum Inhibitory Concentration (M.I.C.) [7]: 125 µg/mL
- Minimum Inhibitory Concentration (M.I.C.) [8]: 63 µg/mL
- Minimum Inhibitory Concentration (M.I.C.) [9]: 32 µg/mL and 63 µg/mL
- Minimum Inhibitory Concentration (M.I.C.) [10]: 125 µg/mL
- Minimum Inhibitory Concentration (M.I.C.) [11]: > 63 µg/mL
- Minimum Inhibitory Concentration (M.I.C.) ([15]; Proteus morganii A15153): 4 µg/mL
- MIC ([16]; A21205, read-out: Minimum Inhibitory Concentration (M.I.C.)): 4 µg/mL
- Minimum Inhibitory Concentration (M.I.C.) ([17]; K. pneumoniae A15130): 63 µg/mL
- Minimum Inhibitory Concentration (M.I.C.) ([18]; Staph. aureus A15097 (Meth-Res)): 63 µg/mL
- Minimum Inhibitory Concentration (M.I.C.) ([19]; E. coli A15119): 4 µg/mL
- Minimum Inhibitory Concentration (M.I.C.) [20]: 1 µg/mL

SMILES: CCCC1=C(C(=O)O)N2C(=O)C[C@H]2S1 [Preparation 15, 2-Propylpenem-3-carboxylic Acid]
- MIC [1]: 63 µg/mL (≈ 295 µM)
- MIC [2]: 16 µg/mL (≈ 75 µM)
- MIC [3]: 16 µg/mL (≈ 75 µM)
- MIC [4]: 1 µg/mL (≈ 4.69 µM)
- MIC [5]: > 125 µg/mL
- MIC [6]: 1 µg/mL (≈ 4.69 µM)
- MIC [7]: > 125 µg/mL
- Minimum Inhibitory Concentration (M.I.C.) [8]: 125 µg/mL
- MIC [8]: > 125 µg/mL
- Minimum Inhibitory Concentration (M.I.C.) [9]: 125 µg/mL
- MIC [9]: 63 µg/mL (≈ 295 µM)
- MIC [10]: > 125 µg/mL
- MIC [11]: > 63 µg/mL
- MIC [12]: > 125 µg/mL
- MIC [13]: 8 µg/mL (≈ 37.5 µM)
- MIC ([14]; Enterobacter cloacae A9656): 125 µg/mL (≈ 586 µM)
- MIC ([14]; Enterobacter cloacae, A9656, Enterobacter cloacae A9656): 63 µg/mL (≈ 295 µM)
- MIC [15]: 63 µg/mL (≈ 295 µM)
- Minimum Inhibitory Concentration (M.I.C.) ([16]; Providencia stuartii (Pr. rettgeri) A21205, overnight 37° C.): 32 µg/mL
- MIC [16, 22]: 16 µg/mL (≈ 75 µM)
- MIC [17]: > 125 µg/mL
- MIC ([18]; read-out: Minimum Inhibitory Concentration (M.I.C.), Staph. aureus A15097 (Meth-Res)): 125 µg/mL (≈ 586 µM)
- MIC [19]: 16 µg/mL (≈ 75 µM)
- MIC [20]: 16 µg/mL (≈ 75 µM)
